Test results taken from publication PMC5517562, “Design and discovery of novel monastrol-1,3,5-triazines as potent anti-breast cancer agent via attenuating Epidermal Growth Factor Receptor tyrosine kinase” (Scientific Reports, 2017).

Columns and labels:
[1] = system: HepG2 (Hepatocellular carcinoma); assay: MTT in vitro cytotoxicity assay, HepG2; format: cell-based, human; details: Homo sapiens, NA: Not active
Protocol: (§1) The synthesized compounds were evaluated for in-vitro cytotoxic activity against various cell lines such as HeLa (cervical cancer), MCF-7 (breast cancer), HL-60 (Human promyelocytic leukemia), HepG2 (Hepatocellular carcinoma) and MCF 12A (normal epithelial cell) by the MTT assay method. […] The relationship between surviving fraction and drug concentration was plotted to obtain the survival curve of all the cancer cell lines HeLa, MCF-7, HL-60 and HepG2. The response parameter calculated was the IC50 values, which responds to the concentration required for 50% inhibition of cell viability. The in-vitro cytotoxic activity of the synthesized compounds is summarized Table 3.
(§2) The target compounds were subjected to in vitro cytotoxicity bioassay. In vitro cytotoxicity was determined using a standard MTT assay with protocol appropriate for the individual test system[29]–[31]. The four human cancer cell lines HeLa, MCF-7, HL-60, HepG2 and MCF-12A were cultured in the MEM medium supplemented with 10% FBS, 1% glutamine and […] gentamicin sulfate in a CO2 incubator in a humidified atmosphere of 5% CO2 and 95% air. The test compounds were prepared prior to the experiment by dissolving in 0.1% DMSO and diluted with medium. The cells were then exposed to different concentrations of drugs ([…]) in the volume of […]. Cells in the control wells received the same volume of medium containing 0.1% DMSO. After 24 h, the medium was removed and cell cultures were incubated with […] MTT reagent (1 mg/ml) for 5 h at 37 °C. The known number of cells ([…]) was incubated in a 5% CO2 incubator at 37 °C in the presence of different concentrations of test compounds. After 48 h of drug incubation, the MTT solution was added in each well and absorbance was recorded at 540 nm by an ELISA reader. The experiment was performed in triplicate. Cell survival was calculated as the percentage of MTT inhibition as % growth inhibition = 100 − (mean OD of individual test Group/Mean OD of each Control Group) × 100.

[2] = system: MCF 12A (normal epithelial breast cell line); assay: MTT assay on normal cells, MCF 12A; format: cell-based, human; details: normal epithelial breast cell MCF 12A
Protocol: as §1
The presence of non-halogen substituent along with electron donating substituent seriously jeopardise the anticancer potential. […] To determine the selectivity of these molecules between normal and cancerous cells, the designed compounds were also tested against MCF 12A, a normal epithelial breast cell.
as §2

[3] = system: HeLa (cervical cancer); assay: MTT in vitro cytotoxicity assay, HeLa; format: cell-based, human; details: Homo sapiens
Protocol: as §1, §2

[4] = system: DMBA induced mammary tumor; assay: DMBA induced mammary tumor in female Sprague-Dawley rats; format: in vivo, rat
From the text: Encouraged by the excellent EGFR-TK inhibitory activity and anticancer effect of compound 7l against breast cancer cells which are further substantiated with docking analysis, prompted us to further analyze the effect of compound 7l in the in-vivo system. Therefore, we have utilized 7,12-Dimethylbenz(a)anthracene (DMBA), a polycyclic aromatic hydrocarbon, to induce the mammary carcinogenesis in the experimental animals to quantify the potential protective effect of compound 7l. The mechanism behind its action to induce the cancer is based on its metabolized product, i.e. the epoxide that readily forms DNA adducts which is responsible for malignant alteration. At the first instance, the effect of compound 7l was analyzed on the effect of body weight of the experimental animals.
Animal model. The female Sprague-Dawley rats (100–120 g) were obtained from the Institutional animal house after approval from the Institutional Animal Ethics Committee. The animals were kept in suitable cages with free access to food and water under a controlled temperature (24 ± 2 °C), humidity (60 ± 10%) with alternate light/dark cycle of 12 h. The entire experimental procedures involving animals were approved by the Institutional Animal Ethics Committees (IAEC) of SHUATS, in accordance and duly approved with CPCSEA (Committee for the Purpose of Control and Supervision of Experiments on Animals, Government of India. The authors confirm that all experiments were performed in accordance with relevant guidelines and regulations of SHUATS.
Initiation of breast carcinogenesis. The mammary carcinogenesis was induced in experimental rat using one-time subcutaneous administration of DMBA (25 mg) in emulsified form with the help of sunflower oil and saline to each rat.
Design of experiment. Experimental design. Total numbers of 30 animals were randomly divided into five groups and each group contains 6 animals. The various groups received different treatment as follows:
The DMBA (s.c.; 25 mg/rat) was administered to each rats near mammary gland at the end of the first week. The test drug was administered once in a day and was continued till the end of the experimental period. At the end of 16th week, the rats were fasted overnight and sacrificed by the cervical decapitation under influence of anesthesia. The blood samples were collected in and after centrifugation, the plasma was used for the further biochemical analysis. The liver and mammary tissues were excised immediately from the experimental rats and homogenized with suitable buffer, centrifuged and the resulting supernatant was used for biochemical estimations.
Biochemical Estimation. The remaining excised liver and mammary tissues were rinsed in ice-cold saline and known amount of the tissue were homogenized in 0.1 M Tris-HCl buffer (pH 7.4) at 4°C. The supernatant was collected as tissue homogenate and was used for the estimation of various biochemical parameters. The microsomal protein concentration was estimated by the method of Lowry et al.[33]; while, the concentration of plasma and mammary TBARS was estimated by the earlier reported method, [35] and the concentration of plasma and mammary tissue LOOH were estimated by the previous method. Moreover, the activity of the antioxidant enzyme system, such as SOD, CAT, GPX, GSH, CYP450, Cyt-b5, GST and GR activity in plasma and mammary tissue were determined by the earlier method given elsewhere[37]–[43].

[5] = DMBA rats, 5, 10, 15 mg/kg once a day
[6] = liver and mammary tissues of DMBA treated animals
[7] = plasma and mammary tissues of DMBA treated animals

CCOC(=O)C1=C(C)N(c2nc(Nc3cccc(F)c3)nc(Nc3cccc(F)c3)n2)C(=S)NC1c1ccc(F)cc1 (stereo not shown) [7l, Ethyl 1-(4,6-bis((3-fluorophenyl)amino)-1,3,5-triazin-2-yl)-4-(4-fluorophenyl)-6-methyl-2-thioxo-1,2,3,4-tetrahydropyrimidine-5-carboxylate]
IC50 [1]: 31.2 ± 0.82 µM | IC50 MCF 12A [2]: non-toxic | IC50 [3]: 39.7 ± 0.81 µM | Percentage of tumour incidence [4, 5]: efficient in reducing the percentage of incidence of tumour | Tumour volume [4, 5]: significant reduction | Body weight of experimental animals ([4]; DMBA rats, 5, 10, 15 mg/kg once a day, vs DMBA group): significantly improved | Concentration of Phase I enzymes (CYP450 and Cyt-b5) [4, 6]: marked decline | Concentration of Phase II enzymes (GST and GR) [4, 6]: significant upsurge | Antioxidant status (SOD, CAT, GSH, GPx) [4, 7]: significant improvement | Level of TBARS and LOOH (lipid peroxidation) [4, 7]: significant reduction
